Data taken from article PMC6100415, “Hepatic Metabolism of Sakuranetin and Its Modulating Effects on Cytochrome P450s and UDP-Glucuronosyltransferases” (Molecules : A Journal of Synthetic Chemistry and Natural …, 2018).

Test system: hCAR-mediated CYP2B6 promoter
Assay: CAR-mediated CYP2B6 promoter luciferase assay in HepG2 cells
Format: cell-based, human
Conditions: pcDNA3-CAR-transfected HepG2 cells, 24 h; CITCO 500 nM
Method: HepG2 cells (American Tissue Culture Collection, Manassas, VA, USA) were maintained in Dulbecco’s modified Eagle’s essential medium (DMEM), containing 10% fetal bovine serum, 1% nonessential amino acids, 1% GlutaMAX®, and 1% antibiotics/antimycotics at 37 °C in a 5% CO2 atmosphere. The expression plasmid encoding the human constitutive androstane receptor (hCAR; pcDNA3-CAR) and the pGL3-CYP2B6 luciferase construct were kindly provided by Dr. Hongbing Wang (University of Maryland, College Park, MD, USA). The plasmid encoding the human pregnane X receptor (hPXR; pcDNA3-PXR) and the pGL3-CYP3A4 luciferase construct were obtained from Dr. Masahiko Negishi at the National Institutes of Health (Bethesda, MD, USA). Cells were seeded at a density of 1.5 × 10^5 cells/well into a 24-well plate. The next day, the cells were transfected with 0.25 μg of either pcDNA3-CAR or pcDNA3-PXR and 0.25 μg of a promoter luciferase plasmid (either pGL3-CYP2B6 or pGL3-CYP3A4) using Lipofectamine 2000 (Invitrogen, Carlsbad, CA, USA) according to the manufacturer’s instructions. […] The cells were harvested and luciferase activity was measured as described previously.

Structure (SMILES): Clc1ccc(-c2nc3sccn3c2C=NOCc2ccc(Cl)c(Cl)c2)cc1 [CITCO, reference compound]
- CYP2B6 luciferase activity increase: 1.5 fold
